Format in all cases: cell-based
Assay [1] concerns the target EP4 subtype of the human PGE2 receptor (Homo sapiens, UniProt P35408). Kind of assay: cAMP antagonism test on the human EP4 receptor (HTRF cAMP detection). To be noted: selectivity towards hEP4, IC50 measured by cAMP antagonism test. In outline:
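Competitive HTRF cAMP read-out (cAMP-d2 vs Eu-cryptate anti-cAMP antibody, 665/620 nm ratio) on lysed human EP4 cells. Compound (0.8 nM–16.5 μM) applied 20 min at RT before 60 min PGE2 challenge (3× solution 0.3 nM, IBMX present); 20 min lysis precedes reading.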
Background: TR-FRET usually uses a lanthanide donor and a delayed reading to cut background.

In assay [2] the target is EP2 subtype of the human PGE2 receptor (Homo sapiens, UniProt P43116). As to the kind of experiment: cAMP antagonism test on the human EP2 receptor (HTRF cAMP detection). To be noted: hEP2 receptor, read-out: Antagonism hEP2 IC50. In outline:
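Read-out is a competitive HTRF for cAMP: lysate cAMP displaces cAMP-d2 from Eu cryptate-labelled antibody, and antagonism raises the 665/620 nm ratio. Compound (0.8 nM–16.5 μM) added to EP2 cells 20 min at RT before 60 min PGE2 challenge (3× stock 1.5 nM) with IBMX, followed by 20 min lysis.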

The target in a further assay is T1, human PGD receptor (Homo sapiens, UniProt Q13258).
T1 sequence (Q13258 1-359): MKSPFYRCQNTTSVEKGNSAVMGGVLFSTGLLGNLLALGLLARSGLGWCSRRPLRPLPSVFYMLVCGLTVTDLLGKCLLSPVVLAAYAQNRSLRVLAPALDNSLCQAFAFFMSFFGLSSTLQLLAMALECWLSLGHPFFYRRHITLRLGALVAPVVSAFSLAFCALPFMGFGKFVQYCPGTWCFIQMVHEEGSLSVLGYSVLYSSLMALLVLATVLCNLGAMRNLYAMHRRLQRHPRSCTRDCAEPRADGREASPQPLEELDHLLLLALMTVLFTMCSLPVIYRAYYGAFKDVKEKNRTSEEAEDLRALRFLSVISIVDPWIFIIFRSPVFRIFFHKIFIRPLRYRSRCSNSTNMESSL
As to the kind of experiment: cAMP antagonism test on the human prostaglandin D receptor (HTRF cAMP detection). To be noted: selectivity towards hDP, IC50 measured by cAMP antagonism test. Summed up:
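HTRF competition read-out (665/620 nm ratio ×10000), where higher FRET means less cAMP, i.e. antagonism. Compounds (0.8 nM–16.5 μM) were preincubated 20 min at RT with cells and cAMP-d2, PGD2 (3× solution, 6 nM) in IBMX-containing PBS added for 30 min at RT, then cells lysed 20 min.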

Sequence of EP2 subtype of the human PGE2 receptor (P43116 whole entry): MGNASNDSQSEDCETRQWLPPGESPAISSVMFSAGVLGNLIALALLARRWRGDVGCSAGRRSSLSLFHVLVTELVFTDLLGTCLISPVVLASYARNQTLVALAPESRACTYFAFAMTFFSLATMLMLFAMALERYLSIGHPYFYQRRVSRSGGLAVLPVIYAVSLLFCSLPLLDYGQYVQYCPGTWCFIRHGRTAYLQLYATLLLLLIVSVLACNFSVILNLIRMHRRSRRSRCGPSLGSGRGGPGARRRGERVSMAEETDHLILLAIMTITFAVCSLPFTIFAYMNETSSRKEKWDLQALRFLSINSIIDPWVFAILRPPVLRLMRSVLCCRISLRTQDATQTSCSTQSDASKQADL
Sequence of EP4 subtype of the human PGE2 receptor (P35408 whole entry): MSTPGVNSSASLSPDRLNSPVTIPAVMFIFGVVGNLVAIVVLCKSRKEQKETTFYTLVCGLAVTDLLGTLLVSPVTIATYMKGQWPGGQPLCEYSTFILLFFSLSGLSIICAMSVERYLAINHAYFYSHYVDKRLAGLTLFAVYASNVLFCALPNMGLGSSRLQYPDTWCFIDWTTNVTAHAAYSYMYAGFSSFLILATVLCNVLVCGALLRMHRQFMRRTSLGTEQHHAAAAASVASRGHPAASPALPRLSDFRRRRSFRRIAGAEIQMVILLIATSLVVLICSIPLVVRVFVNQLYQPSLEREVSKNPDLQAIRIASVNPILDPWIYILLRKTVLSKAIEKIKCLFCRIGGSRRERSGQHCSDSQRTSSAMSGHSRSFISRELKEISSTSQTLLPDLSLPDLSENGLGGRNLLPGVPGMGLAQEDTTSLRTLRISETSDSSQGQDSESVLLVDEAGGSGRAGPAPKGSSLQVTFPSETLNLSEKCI

As a reminder, the IC50 is the concentration needed to halve the response being measured. Turning to `CCOc1c(C(=O)NCCOC)ccc2nn(CC3CN(C(=O)c4ccc(Cl)cc4)C3)cc12` [Example 276, 2-{[1-(4-chlorobenzoyl)azetidin-3-yl]methyl}-4-ethoxy-N-(2-methoxyethyl)-2H-indazol-5-carboxamide], the “Selectivity hEP2/hEP4” value in assay [1] is listed as “xx (xx: 10-100)”. Further, the IC50 in assay [2] was 226 nM. In addition, the “Selectivity hEP2/hDP” value at human PGD receptor is listed as “xx (xx: 10-100)”.

With `Cc1c(C(=O)NCCOCC2CC2)ccc2nn(CC3CN(C(=O)c4ccc(-c5ccc(F)cc5)cc4)C3)cc12` [Example 157, N-[2-(cyclopropylmethoxy)ethyl]-2-({1-[(4′-fluorobiphenyl-4-yl)carbonyl]azetidin-3-yl}methyl)-4-methyl-2H-indazol-5-carboxamide], in assay [1], the “Selectivity hEP2/hEP4” value is given as “xxx (xxx > 100)”. The IC50 in assay [2] was determined as 13.6 nM. Moreover, the “Selectivity hEP2/hDP” value on human PGD receptor was “xxx (xxx > 100)”.

Take `Cc1c(C(=O)NCC(F)(F)F)ccc2nn(CC3CCN(C(=O)c4ccc(Oc5ccc(C#N)cn5)cc4)CC3)cc12` [Example 310, 2-[(1-{4-[(5-cyanopyridin-2-yl)oxy]benzoyl}piperidin-4-yl)methyl]-4-methyl-N-(2,2,2-trifluoroethyl)-2H-indazol-5-carboxamide]: the “Selectivity hEP2/hEP4” value in assay [1] is recorded as “xx (xx: 10-100)”. In addition, in assay [2], the IC50 was determined as 806 nM. Besides, the “Selectivity hEP2/hDP” value at human PGD receptor is given as “xx (xx: 10-100)”.

Take `COCCNC(=O)c1ccc2nn(CC3CCN(C(=O)c4ccc(OC(F)(F)F)c(F)c4)CC3)cc2c1OC` [Example 272, 2-({1-[3-fluoro-4-(trifluoromethoxy)benzoyl]piperidin-4-yl}methyl)-4-methoxy-N-(2-methoxyethyl)-2H-indazol-5-carboxamide]: in assay [1], the “Selectivity hEP2/hEP4” value is on record as “xxx (xxx > 100)”. The IC50 in assay [2] was determined as 23.7 nM. On human PGD receptor, the “Selectivity hEP2/hDP” value is “xxx (xxx > 100)”.

`COCCNC(=O)c1ccc2nn(CC3CN(C(=O)c4ccc(Cl)cc4F)C3)cc2c1OC` [Example 257, 2-{[1-(4-chloro-2-fluorobenzoyl)azetidin-3-yl]methyl}-4-methoxy-N-(2-methoxyethyl)-2H-indazol-5-carboxamide]: the “Selectivity hEP2/hEP4” value in assay [1] is reported as “xxx (xxx > 100)”. The IC50 in assay [2] amounted to 102 nM. Further, the “Selectivity hEP2/hDP” value on human PGD receptor is “xxx (xxx > 100)”.

On to `[2H]C([2H])([2H])OC([2H])([2H])C([2H])([2H])NC(=O)c1ccc2nn(CC3CCN(C(=O)c4ccc(Cl)cc4)CC3)cc2c1C` [Example 115, 2-{[1-(4-chlorobenzoyl)piperidin-4-yl]methyl}-N-(2-[^2H3]methoxy[^2H4]ethyl)-4-methyl-2H-indazol-5-carboxamide], for which the “Selectivity hEP2/hEP4” value in assay [1] is “xxx (xxx > 100)”. Further, the IC50 in assay [2] was 9.05 nM. Further, the “Selectivity hEP2/hDP” value at human PGD receptor was “xxx (xxx > 100)”.

With `Cc1c(C(=O)NCC(F)(F)F)ccc2nn(CC3CCN(C(=O)c4ccc(S(F)(F)(F)(F)F)cc4)CC3)cc12` [Example 71, 4-methyl-2-({1-[4-(pentafluoro-λ^6-sulphanyl)benzoyl]piperidin-4-yl}methyl)-N-(2,2,2-trifluoroethyl)-2H-indazol-5-carboxamide], the “Selectivity hEP2/hEP4” value in assay [1] is “xxx (xxx > 100)”. Moreover, in assay [2], the 50% inhibitory concentration (IC50) came out at 82.9 nM. In addition, the “Selectivity hEP2/hDP” value at human PGD receptor is reported as “xxx (xxx > 100)”.

Consider `COCCNC(=O)c1cc2cn(CC3CN(C(=O)c4ccc(C(F)(F)F)cc4F)C3)nc2cc1C` [Example 182, 2-({1-[2-fluoro-4-(trifluoromethyl)benzoyl]azetidin-3-yl}methyl)-N-(2-methoxy-ethyl)-6-methyl-2H-indazol-5-carboxamide], for which the “Selectivity hEP2/hEP4” value in assay [1] is given as “xxx (xxx > 100)”. Also, the IC50 in assay [2] is 64.2 nM. Moreover, on human PGD receptor, the “Selectivity hEP2/hDP” value was “xxx (xxx > 100)”.

Take `COCCNC(=O)c1cc2cn(CC3CN(C(=O)c4ccc(Cl)c(C(F)(F)F)c4)C3)nc2cc1C` [Example 185, 2-({1-[4-chloro-3-(trifluoromethyl)benzoyl]azetidin-3-yl}methyl)-N-(2-methoxy-ethyl)-6-methyl-2H-indazol-5-carboxamide]: the “Selectivity hEP2/hEP4” value in assay [1] is “xxx (xxx > 100)”. For the same compound, in assay [2], the IC50 is 24.8 nM. Further, the “Selectivity hEP2/hDP” value on human PGD receptor is “xxx (xxx > 100)”.

As for `COCCNC(=O)c1ccc2nn(CC3CCN(C(=O)c4cc(-c5ccccc5)no4)CC3)cc2c1C` [Example 13, N-(2-methoxyethyl)-4-methyl-2-({1-[(3-phenylisoxazol-5-yl)carbonyl]piperidin-4-yl}methyl)-2H-indazol-5-carboxamide], the “Selectivity hEP2/hEP4” value in assay [1] was “xxx (xxx > 100)”. For the same compound, the IC50 in assay [2] was found to be 35.9 nM. The “Selectivity hEP2/hDP” value on human PGD receptor was “xxx (xxx > 100)”.

Regarding `COCCNC(=O)c1ccc2nn(CC3CCN(C(=O)c4ccc(-c5ccc(OC)nc5)cc4)CC3)cc2c1C` [Example 375, N-(2-methoxyethyl)-2-({1-[4-(6-methoxypyridin-3-yl)benzoyl]piperidin-4-yl}-methyl)-4-methyl-2H-indazol-5-carboxamide], in assay [1], the “Selectivity hEP2/hEP4” value is given as “xxx (xxx > 100)”. Moreover, in assay [2], the 50% inhibitory concentration (IC50) amounted to 5.8 nM. Also, the “Selectivity hEP2/hDP” value on human PGD receptor is “xxx (xxx > 100)”.

As to `COCCNC(=O)c1ccc2nn(CC3CCN(C(=O)c4ccc(Cl)cc4)CC3)cc2c1OC(F)F` [Example 225, 2-{[1-(4-chlorobenzoyl)piperidin-4-yl]methyl}-4-(difluoromethoxy)-N-(2-methoxyethyl)-2H-indazol-5-carboxamide], the “Selectivity hEP2/hEP4” value in assay [1] is reported as “xxx (xxx > 100)”. For the same compound, the IC50 in assay [2] is 14.3 nM. Moreover, at human PGD receptor, the “Selectivity hEP2/hDP” value is on record as “xxx (xxx > 100)”.

Take `COC(C)CNC(=O)c1ccc2nn(CC3CN(C(=O)c4ccc(Cl)cc4)C3)cc2c1C` (single isomer, unassigned) [Example 140, (S or R)-2-{[1-(4-chlorobenzoyl)azetidin-3-yl]methyl}-N-(2-methoxypropyl)-4-methyl-2H-indazol-5-carboxamide]: in assay [1], the “Selectivity hEP2/hEP4” value is on record as “xxx (xxx > 100)”. Moreover, the IC50 in assay [2] came to 55.3 nM. Moreover, the “Selectivity hEP2/hDP” value on human PGD receptor was “xxx (xxx > 100)”.

Consider `Cc1c(C(=O)NCCOCC(F)(F)F)ccc2nn(CC3CN(C(=O)c4ccc(Oc5ccc(C(F)(F)F)cc5)cc4)C3)cc12` [Example 163, 4-methyl-N-[2-(2,2,2-trifluoroethoxy)ethyl]-2-[(1-{4-[4-(trifluoromethyl)phenoxy]benzoyl}azetidin-3-yl)methyl]-2H-indazol-5-carboxamide], for which the “Selectivity hEP2/hEP4” value in assay [1] was “xxx (xxx > 100)”. Moreover, the IC50 in assay [2] was 6.8 nM. The “Selectivity hEP2/hDP” value on human PGD receptor is reported as “xxx (xxx > 100)”.

As to `Cc1c(C(=O)NCCN2CCC(F)(F)C2)ccc2nn(CC3CN(C(=O)c4ccc(Cl)cc4)C3)cc12` [Example 126, 2-{[1-(4-chlorobenzoyl)azetidin-3-yl]methyl}-N-[2-(3,3-difluoropyrrolidin-1-yl)ethyl]-4-methyl-2H-indazol-5-carboxamide], the “Selectivity hEP2/hEP4” value in assay [1] is reported as “xxx (xxx > 100)”. Besides, the IC50 in assay [2] stood at 21.2 nM. For the same compound, the “Selectivity hEP2/hDP” value at human PGD receptor is listed as “xxx (xxx > 100)”.

Consider `Cc1c(C(=O)NCCOC2CC2)ccc2nn(CC3CN(C(=O)c4ccc(OC(F)(F)F)cc4)C3)cc12` [Example 136, N-[2-(cyclopropyloxy)ethyl]-4-methyl-2-({1-[4-(trifluoromethoxy)benzoyl]azetidin-3-yl}methyl)-2H-indazol-5-carboxamide], for which, in assay [1], the “Selectivity hEP2/hEP4” value is given as “xxx (xxx > 100)”. The IC50 in assay [2] came out at 6.59 nM. Also, the “Selectivity hEP2/hDP” value on human PGD receptor is “xxx (xxx > 100)”.

The values are drawn from US9062041B2 (Bayer Intellectual Property GmbH, priority 2011, dated 2015).
